# Measured values reported in BindingDB's records for doi:10.1124/mol.59.3.420 (The R. W. Johnson Pharmaceutical Research Institute, 2001).
# Legend:
# [1] = target: Histamine H4 receptor (Homo sapiens, UniProt Q9H3N8)
# [2] = target: Histamine H3 receptor (Homo sapiens, UniProt Q9Y5N1)
# Sequence of Histamine H3 receptor (Q9Y5N1 whole entry): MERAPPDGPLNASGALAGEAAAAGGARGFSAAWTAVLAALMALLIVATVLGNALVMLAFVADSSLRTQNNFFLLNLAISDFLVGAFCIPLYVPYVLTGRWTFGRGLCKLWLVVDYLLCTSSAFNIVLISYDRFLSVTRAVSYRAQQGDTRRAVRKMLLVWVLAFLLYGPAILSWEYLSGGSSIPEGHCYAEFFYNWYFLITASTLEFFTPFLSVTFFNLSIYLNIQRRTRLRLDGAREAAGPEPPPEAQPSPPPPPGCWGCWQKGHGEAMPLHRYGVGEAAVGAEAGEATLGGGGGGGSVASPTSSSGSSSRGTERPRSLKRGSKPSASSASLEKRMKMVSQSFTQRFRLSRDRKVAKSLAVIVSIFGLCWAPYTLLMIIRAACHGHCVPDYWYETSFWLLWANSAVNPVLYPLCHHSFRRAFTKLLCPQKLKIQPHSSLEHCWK
Ki [1] [nM],Ki [2] [nM],SMILES
> 10000,> 10000,CN/C([CH-][N+](=O)[O-])=[NH+]\CCSCc1ccc(CN(C)C)o1
–,84,CNC(=S)NCCCCc1cnc[nH]1 [1-[4-(1H-imidazol-5-yl)butyl]-3-methylthiourea]
2.7,0.3,N=C(N)SCCc1cnc[nH]1 [2-(3H-imidazol-4-yl)ethylsulfanylmethanimidamide]
12.3,67,Cc1[nH]cnc1CSCCNC(=N)NCCCc1c[nH]cn1 [2-[3-(1H-imidazol-5-yl)propyl]-1-(2-{[(5-methyl-1H-imidazol-4-yl)methyl]sulfanyl}ethyl)guanidine]
9,–,c1nc(CC2CCNCC2)c[nH]1 [4-(1H-imidazol-4-ylmethyl)piperidine]
> 10000,–,"CN1CCC(=C2c3ccccc3C=Cc3ccccc32)CC1 [5-(1-methylpiperidylidene-4)-5H-dibenzo(a,d)cyclopheptene]"
> 10000,–,N#Cc1ccc(OCCCN2CCCCC2)cc1 [UCL-2138]
–,825,CN(C)CCCSC(=N)N [[3-(carbamimidoylsulfanyl)propyl]dimethylamine]

SMILES,Ki [1] [nM],Ki [2] [nM]
CN/C(=N/CCSCc1nc[nH]c1C)NC#N,> 10000,–
C[C@@H](N)Cc1c[nH]cn1,146,–
CNCCc1c[nH]cn1 [N(alpha)-Methylhistamine],23,0.5
NC(=NCc1ccc(Cl)cc1)SCCCc1cnc[nH]1 [VUF 9153],12.8,–
